Results on 6 compounds are retold here after PMC6076925, “Identification of Digestive Enzyme Inhibitors from Ludwigia octovalvis (Jacq.) P.H.Raven” (Evidence-based Complementary and Alternative Medicine : eCAM, 2018).

Assay [1] concerns the target T1, lipase from porcine pancreas (Sus scrofa, UniProt P00591).
T1 construct: lipase from porcine pancreas (PPL type II, 100–500 units/mg, L3126); purchased Sigma–Aldrich L3126; host or cells: porcine pancreas
T1 sequence (P00591 1-450): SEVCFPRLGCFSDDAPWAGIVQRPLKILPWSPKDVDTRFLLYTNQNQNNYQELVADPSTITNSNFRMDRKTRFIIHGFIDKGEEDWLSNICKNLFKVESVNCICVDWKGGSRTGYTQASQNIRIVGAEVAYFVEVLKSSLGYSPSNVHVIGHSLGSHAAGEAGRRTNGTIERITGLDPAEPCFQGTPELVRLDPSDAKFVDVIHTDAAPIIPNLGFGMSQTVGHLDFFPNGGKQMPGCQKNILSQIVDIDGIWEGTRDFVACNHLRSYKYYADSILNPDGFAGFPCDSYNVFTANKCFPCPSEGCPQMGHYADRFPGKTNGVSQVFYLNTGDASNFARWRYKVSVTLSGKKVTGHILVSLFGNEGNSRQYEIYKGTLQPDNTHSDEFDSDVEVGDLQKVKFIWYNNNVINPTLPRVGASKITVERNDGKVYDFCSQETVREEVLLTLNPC
The assay can be described thus: Pancreatic lipase inhibition assay (DMPTB/DTNB). It counts as biochemical. The conditions noted are these: for inhibition at 250 µg/mL: sample at 0.25 mg/mL. The method, then:
Pancreatic lipase inhibition assay was previously reported. Briefly, the absorbance of a mixture of DTNB 0.2 mM, DMPTB 0.8 mM, NaCl 0.1M, CaCl2 2 mM, Triton X–100 0.04%, porcine lipase 65 μg/mL, and the sample (dissolved in DMSO and water) at 0.25 mg/mL was followed with a Thermo Scientific Genesys 20 Visible Spectrophotometer (Fisher Scientific, 4001000, Hampton, NH) at 412 nm every 20 s for five minutes and plotted (Excel, Microsoft) to obtain initial velocity value. The lipase was prepared as a stock at 10 mg/mL in Tris–HCl 25 mM pH 6.2 with 0.1 M NaCl, SDS 2 mM, and 250 μL/mL of glycerol. A control assay without substrate was carried out to discard nonspecific reactions with DTMB. All reactions were tested by triplicate.
(§1) The logarithm of the concentration was plotted on the x-axis and the percentage of enzymatic inhibitory activity on the y-axis to obtain a semilogarithmic graphic.

The test system of assay [2] is α–glucosidases. The assay can be described thus: α–glucosidase inhibition assay (crude intestinal enzyme, corn starch substrate). Format: biochemical, Wistar rats. The settings on record: for Inhibition percentage α–glucosidases: mean ± standard deviation; for IC50: pure compounds, intestinal rat enzyme, starch as substrate. On the procedure:
The α–glucosidase assay was previously reported. In brief, corn starch (4 mg/mL) was digested by crude enzyme at 37°C during 10 minutes in a phosphate buffer pH 7 solution at a sample concentration of 0.6 mg/mL (dissolved in DMSO and water). Subsequently, released glucose was quantified by a glucose oxidase-based clinical reagent with the GOD–POD Trinder kit (Spinreact, Girona, Spain) following manufacturer's directions. All tests were performed in quadruplicate. Crude enzyme was obtained directly from healthy Wistar rats (12 h fasting). The small intestine was flushed several times with ice-cold isotonic buffer pH 7 and after the scraping of the mucosa, it was homogenized and stored at -20°C. Animal care and management were carried out under the guidelines of Mexican Official Standard NOM–062–ZOO–1999.
as §1

Assay [3] has as its system α–glucosidases. Kind of assay: Type of inhibition and Ki on α–glucosidases by Lineweaver–Burk plots (maltodextrin substrate). Format: biochemical, Wistar rats. The settings on record: for Type of enzymatic inhibition of α–glucosidases: Lineweaver–Burk plots. On the procedure: (§2) The type of inhibition was determined quantifying the activity with and without inhibitor at different substrate concentrations (5–0.35 mg/mL for α–glucosidases and 0.05–0.2 μg/mL for pancreatic lipase) and comparing Lineweaver–Burk plots (inverse substrate concentration [S] and inverse reaction velocity V). In the case of the determination of α–glucosidase type of inhibition, the substrate was changed from corn starch to maltodextrin (MD100, Luzhou Bio–Chem Technology Co., Shandong, China), in order to have greater uniformity in the reaction.
Michaelis–Menten constant (Km) and apparent Km (Km^app) were obtained analysing the Lineweaver–Burk plots. These values allowed to obtain the inhibition constant (Ki) for competitive inhibitors using (2), where [I] represents inhibitor concentration.(2) Km^app=Km1+I/Ki

In another assay the target is maltase. Details: method as in doi:10.1016/j.foodchem.2010.03.075. The settings on record: rat; read-out: IC50 inhibition of maltase; cited from earlier work.
In a further assay the target is sucrase. The arrangement: method as in doi:10.1016/j.foodchem.2010.03.075. The settings on record: rat; read-out: IC50 inhibition of sucrase; cited from earlier work.
Another assay has as its target T2, pancreatic lipase (Sus scrofa, UniProt P00591).
T2 construct: lipase from porcine pancreas (PPL type II, 100–500 units/mg, L3126); purchased Sigma–Aldrich L3126; host or cells: porcine pancreas
T2 sequence (P00591 1-450): T1 sequence (P00591 1-450)
Kind of assay: Type of inhibition on pancreatic lipase by Lineweaver–Burk plots. It counts as biochemical, porcine. The method, then:
as §2

[4] abbreviates: mean ± standard deviation, read-out: Inhibition percentage Pancreatic lipase.

For `CCCCCCCCCCC[C@@H](C[C@@H]1OC(=O)[C@H]1CCCCCC)OC(=O)[C@H](CC(C)C)NC=O` [Orlistat, orlistat, reference compound], in assay [1] (evaluated at 1.6 µM, mean ± standard deviation, read-out: Inhibition percentage Pancreatic lipase), the inhibition at 1.6 µM stood at 50 ± 2.6%.

Turning to `C[C@H]1O[C@H](O[C@H]2[C@H](O)[C@@H](O)[C@@H](O[C@H]3[C@H](O)[C@@H](O)C(O)O[C@@H]3CO)O[C@@H]2CO)[C@H](O)[C@@H](O)[C@@H]1N[C@H]1C=C(CO)[C@@H](O)[C@H](O)[C@H]1O` (some centres unmarked) [Acarbose, acarbose, reference compound], the “Inhibition percentage α–glucosidases” value in the assay on α–glucosidases [2] (evaluated at 5.8 µM) is 50.0 ± 1.6∗ %.

In the case of `CCOC(=O)c1cc(O)c(O)c(O)c1` [C1F1 (ethyl gallate), ethyl gallate], the IC50 against α–glucosidases [2] is 832 µM; at maltase it was 415 µM; at sucrase, 660 µM. Moreover, in the assay on α–glucosidases [2] (sample at 0.6 mg/mL), the “Inhibition percentage α–glucosidases” value is listed as 98.4 ± 2.0%. In addition, the inhibition at 250 µg/mL in assay [1] (setting [4]) came out at 23.2 ± 3%. For the same compound, the “Type of enzymatic inhibition of α–glucosidases” value in the assay on α–glucosidases [3] was “competitive enzymatic inhibition”. Moreover, the Ki was 636 µM on α–glucosidases [3] (inhibitor at 625 μM) and 315 µM at α–glucosidases [3] (inhibitor at 1250 μM).

For `O=c1cc(-c2ccc(O)c(O)c2)oc2cc(O)cc(O)c12` [Luteolin, reference compound], the IC50 against α–glucosidases [2] is 1260 µM; against α–glucosidases [2] (listed as luteolin), about 1260 µM. The “Inhibition percentage α–glucosidases” value in the assay with α–glucosidases [2] (sample at 0.6 mg/mL) is given as 66.3 ± 5.6%.

For `O=C(O)c1cc(O)c(O)c(O)c1` [C2F1 (gallic acid), gallic acid], the IC50 is 969 µM at α–glucosidases [2], 390 µM on maltase and 130 µM at sucrase. The “Inhibition percentage α–glucosidases” value in the assay on α–glucosidases [2] (sample at 0.6 mg/mL) turned out to be 98.9 ± 0.6%. Further, in the assay on α–glucosidases [3], the “Type of enzymatic inhibition of α–glucosidases” value is “competitive enzymatic inhibition”. The Ki was determined as 436 µM on α–glucosidases [3] (inhibitor at 625 μM) and 208 µM on α–glucosidases [3] (inhibitor at 1250 μM).

`O=c1cc(-c2ccc(O)c(O)c2)oc2cc(O)c([C@@H]3O[C@H](CO)[C@@H](O)[C@H](O)[C@H]3O)c(O)c12` [C4F4–P (isoorientin), isoorientin]: inhibition in assay [1] (pure compound) was half-maximal at 201 µM (IC50). In assay [1] (setting [4]), the inhibition at 250 µg/mL was found to be 55.1 ± 3.1%. Besides, the “Type of enzymatic inhibition of pancreatic lipase” value at pancreatic lipase is “uncompetitive enzymatic inhibition”.

What is called inhibition is the relative decrease from the control value, in per cent. What is called IC50 is the concentration at which inhibition is half-maximal. Usually Ki stands for a dissociation constant, usually derived from enzyme kinetics or from competition with a known ligand. Higher therefore signals a looser hold on the target.
